From patent US20260285846A1, “REV-ERB AGONISTS FOR TH17-MEDIATED INFLAMMATORY DISORDERS” (UNIVERSITY OF FLORID RESEARCH FOUNDATION, iNCORPORATED, priority 2021, published 2026)

The molecules below were run against REV-ERBα LBD (Homo sapiens, UniProt P20393, DEL324-422) (assay: biochemical). Conditions: FRET assay; 6xHistag-REV-ERBα LBD with FITC-labeled SMRT corepressor peptide; read-out: REVERBα (Agonism of REV-ERBα, EC50).
Procedure, shortened: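 TR-FRET corepressor recruitment: 4 nM His-tagged human REV-ERBα LBD (residues 281-614 Δ324-422, or 381-579), 1 nM Tb-anti-His antibody and 400 nM FITC-SMRT peptide in pH 7.4 phosphate buffer with DTT; ligands in triplicate, 2 h at 4° C. 520/495 nm ratio fitted to sigmoidal dose-response for EC50.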

REV-ERBα LBD, sequence (P20393 with tags, fused parts or gaps DEL324-422): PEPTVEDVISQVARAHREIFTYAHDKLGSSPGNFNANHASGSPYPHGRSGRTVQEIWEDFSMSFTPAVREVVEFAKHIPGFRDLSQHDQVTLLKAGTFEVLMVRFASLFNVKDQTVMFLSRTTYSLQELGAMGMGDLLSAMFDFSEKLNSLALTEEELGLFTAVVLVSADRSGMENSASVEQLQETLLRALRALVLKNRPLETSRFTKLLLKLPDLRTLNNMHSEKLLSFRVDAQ
REV-ERBα LBD, sequence (Q9Y618 2335-2356 partner limits assumed): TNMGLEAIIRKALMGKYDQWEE

Row | EC50 [µM] | SMILES
1 | < 0.1 | CC(C)(C)Cn1cc([C@H](NS(=O)(=O)C2CC2)C(F)F)c2ccc(-c3c(F)cccc3C(F)F)cc21 [Compound 104, (S)—N-(1-(6-(2-(difluoromethyl)-6-fluorophenyl)-1-neopentyl-1H-indol-3-yl)-2,2-difluoroethyl)cyclopropanesulfonamide]
2 | < 0.1 | CC(C)(C)Cn1cc([C@H](NS(=O)(=O)C2CC2)C(F)F)c2ccc(-c3ncccc3Cl)cc21 [Compound 85, (S)—N-(1-(6-(3-chloropyridin-2-yl)-1-neopentyl-1H-indol-3-yl)-2,2-difluoroethyl)cyclopropanesulfonamide]
3 | < 0.1 | O=c1ccc(-c2nc3c(cc2F)c([C@H](NS(=O)(=O)C2CC2)C(F)F)cn3C2CCC2)c(C(F)(F)F)[nH]1 [Compound 175, (S)—N-(1-(1-cyclobutyl-5-fluoro-6-(6-oxo-2-(trifluoromethyl)-1,6-dihydropyridin-3-yl)-1H-pyrrolo[2,3-b]pyridin-3-yl)-2,2-difluoroethyl)cyclopropanesulfonamide]
4 | < 0.1 | CC(C)(C)Cn1cc([C@H](NS(=O)(=O)C2CC2)C(F)F)c2cc(F)c(-c3ncc(F)cc3C#N)cc21 [Compound 94, (S)—N-(1-(6-(3-cyano-5-fluoropyridin-2-yl)-5-fluoro-1-neopentyl-1H-indol-3-yl)-2,2-difluoroethyl)cyclopropanesulfonamide]
5 | < 0.1 | CC(C)(C)Cn1cc([C@H](NS(=O)(=O)C2CC2)C(F)F)c2ccc(-c3ccccc3C(F)F)cc21 [Compound 81, (S)—N-(1-(6-(2-(difluoromethyl)phenyl)-1-neopentyl-1H-indol-3-yl)-2,2-difluoroethyl)cyclopropanesulfonamide]
6 | 0.1 to 1 | CC(NS(=O)(=O)C1CC1)c1cn(CC(C)(C)C)c2cc(-c3c(F)cccc3C#N)ccc12 (single isomer, unassigned) [Compound 26, (R or S) N-(1-(6-(2-cyano-6-fluorophenyl)-1-neopentyl-1H-indol-3-yl)ethyl)cyclopropanesulfonamide]
7 | 0.1 to 1 | CC(NS(=O)(=O)C1CC1)c1cn(CC(C)(C)C)c2cc(-c3ccc(C#N)nc3)c(F)cc12 (centres unmarked) [Compound 69, N-(1-(6-(6-cyanopyridin-3-yl)-5-fluoro-1-neopentyl-1H-indol-3-yl)ethyl)cyclopropanesulfonamide]
8 | < 0.1 | O=S(=O)(N[C@@H](c1cn(C2CCC2)c2nc(-c3cc(F)cnc3C(F)(F)F)c(F)cc12)C(F)F)C1CC1 [Compound 150, (S)—N-(1-(1-cyclobutyl-5-fluoro-6-(5-fluoro-2-(trifluoromethyl)pyridin-3-yl)-1H-pyrrolo[2,3-b]pyridin-3-yl)-2,2-difluoroethyl)cyclopropanesulfonamide]
9 | < 0.1 | CC(C)(C)Cn1cc([C@H](NS(=O)(=O)C2CC2)C(F)F)c2cc(F)c(-c3cccnc3C(F)(F)F)cc21 [Compound 38, (S)—N-(2,2-difluoro-1-(5-fluoro-1-neopentyl-6-(2-(trifluoromethyl)pyridin-3-yl)-1H-indol-3-yl)ethyl)cyclopropanesulfonamide]
10 | < 0.1 | Cc1ccccc1-c1cc2c(cc1F)c([C@H](NS(=O)(=O)C1CC1)C(F)F)cn2CC(C)(C)C [Compound 12, (S)—N-(2,2-difluoro-1-(5-fluoro-1-neopentyl-6-(o-tolyl)-1H-indol-3yl)ethyl)cyclopropanesulfonamide]
11 | < 0.1 | CC(C)(C)Cn1cc([C@H](NS(=O)(=O)C2CC2)C(F)(F)F)c2ccc(-c3cc(F)ccc3C(F)(F)F)cc21 [Compound 3, (S)—N-(2,2,2-trifluoro-1-(6-(5-fluoro-2-(trifluoromethyl)phenyl)-1-neopentyl-1H-indol-3-yl)ethyl)cyclopropanesulfonamide]
12 | < 0.1 | CC(C)(C)Cn1cc([C@H](NS(=O)(=O)C2CC(F)C2)C(F)F)c2ccc(-c3cccnc3C(F)(F)F)cc21 (stereo partly drawn) [Compound 46, (S)—N-(2,2-difluoro-1-(1-neopentyl-6-(2-(trifluoromethyl)pyridin-3-yl)-1H-indol-3-yl)ethyl)-3-fluorocyclobutane-1-sulfonamide]
13 | < 0.1 | O=S(=O)(N[C@@H](c1cn(C2CCC2)c2nc(-c3cc(Cl)cnc3C(F)(F)F)c(F)cc12)C(F)F)C1CC1 [Compound 165, (S)—N-(1-(6-(5-chloro-2-(trifluoromethyl)pyridin-3-yl)-1-cyclobutyl-5-fluoro-1H-pyrrolo[2,3-b]pyridin-3-yl)-2,2-difluoroethyl)cyclopropanesulfonamide]
14 | < 0.1 | Cc1cc(C(F)(F)F)c(-c2cc3c(cc2F)c([C@H](NS(=O)(=O)C2CC2)C(F)F)cn3CC(C)(C)C)cn1 [Compound 140, (S)—N-(2,2-difluoro-1-(5-fluoro-6-(6-methyl-4-(trifluoromethyl)pyridin-3-yl)-1-neopentyl-1H-indol-3-yl)ethyl)cyclopropanesulfonamide]
15 | < 0.1 | CC(C)(C)Cn1cc([C@H](NS(=O)(=O)N2CC(F)C2)C(F)F)c2cc(F)c(-c3ccccc3C(F)(F)F)cc21 [Compound 76, (S)—N-(2,2-difluoro-1-(5-fluoro-1-neopentyl-6-(2-(trifluoromethyl)phenyl)-1H-indol-3-yl)ethyl)-3-fluoroazetidine-1-sulfonamide]
16 | < 0.1 | O=S(=O)(N[C@@H](c1cn(C2CCC2)c2cc(-c3cccnc3C(F)(F)F)c(F)cc12)C(F)F)C1CC1 [Compound 146, (S)—N-(1-(1-cyclobutyl-5-fluoro-6-(2-(trifluoromethyl)pyridin-3-yl)-1H-indol-3-yl)-2,2-difluoroethyl)cyclopropanesulfonamide]
17 | < 0.1 | CC(C)(C)Cn1cc([C@H](NS(=O)(=O)C2CC2)C(F)(F)F)c2cc(F)c(-c3cccnc3C(F)(F)F)cc21 [Compound 171, (S)—N-(2,2,2-trifluoro-1-(5-fluoro-1-neopentyl-6-(2-(trifluoromethyl)pyridin-3-yl)-1H-indol-3-yl)ethyl)cyclopropanesulfonamide]
18 | 0.1 to 1 | CC(C)(C)Cn1cc([C@H](NS(=O)(=O)C2CC2)C(F)F)c2ccc(-c3c(C#N)ccnc3C(F)(F)F)cc21 [Compound 52, (S)—N-(1-(6-(4-cyano-2-(trifluoromethyl)pyridin-3-yl)-1-neopentyl-1H-indol-3-yl)-2,2-difluoroethyl)cyclopropanesulfonamide]
19 | < 0.1 | CC(C)(C)Cn1cc([C@H](NS(=O)(=O)C2CC2)C(F)F)c2ccc(-c3ncc(F)cc3C#N)cc21 [Compound 88, (S)—N-(1-(6-(3-cyano-5-fluoropyridin-2-yl)-1-neopentyl-1H-indol-3-yl)-2,2-difluoroethyl)cyclopropanesulfonamide]
20 | < 0.1 | Cc1cnc(C(F)(F)F)c(-c2cc3c(cc2F)c([C@H](NS(=O)(=O)C2CC2)C(F)F)cn3CC(C)(C)C)c1 [Compound 141, (S)—N-(2,2-difluoro-1-(5-fluoro-6-(5-methyl-2-(trifluoromethyl)pyridin-3-yl)-1-neopentyl-1H-indol-3-yl)ethyl)cyclopropanesulfonamide]
21 | < 0.1 | CC(C)(C)Cn1cc([C@H](NS(=O)(=O)C2CC2)C(F)F)c2ccc(-c3ncc(F)cc3Cl)cc21 [Compound 78, (S)—N-(1-(6-(3-chloro-5-fluoropyridin-2-yl)-1-neopentyl-1H-indol-3-yl)-2,2-difluoroethyl)cyclopropanesulfonamide]
22 | < 0.1 | Cc1cnc(C(F)(F)F)c(-c2nc3c(cc2F)c([C@H](NS(=O)(=O)C2CC2)C(F)F)cn3CC(C)(C)C)c1 [Compound 142, (S)—N-(2,2-difluoro-1-(5-fluoro-6-(5-methyl-2-(trifluoromethyl)pyridin-3-yl)-1-neopentyl-1H-pyrrolo[2,3-b]pyridin-3-yl)ethyl)cyclopropanesulfonamide]
23 | < 0.1 | CC(C)(C)Cn1cc([C@H](NS(=O)(=O)C2CC2)C(F)F)c2cc(F)c(C3CCOCC3)cc21 [Compound 172, (S)—N-(2,2-difluoro-1-(5-fluoro-1-neopentyl-6-(tetrahydro-2H-pyran-4-yl)-1H-indol-3-yl)ethyl)cyclopropanesulfonamide]
24 | 0.1 to 1 | CC(C)(C)Cn1cc([C@H](NS(=O)(=O)C2CC2)C(F)(F)F)c2ccc(-c3ccccc3C#N)nc21 [Compound 1, (S)—N-(1-(6-(2-cyanophenyl)-1-neopentyl-1H-pyrrolo[2,3-b]pyridin-3-yl)-2,2,2-trifluoroethyl)cyclopropanesulfonamide]
25 | < 0.1 | CC(C)(C)Cn1cc([C@H](NS(=O)(=O)C2CC2)C(F)F)c2cc(F)c(-c3ncccc3F)cc21 [Compound 89, (S)—N-(2,2-difluoro-1-(5-fluoro-6-(3-fluoropyridin-2-yl)-1-neopentyl-1H-indol-3-yl)ethyl)cyclopropanesulfonamide]
26 | < 0.1 | CC(C)(C)Cn1cc([C@H](NS(=O)(=O)C2CC2)C(F)F)c2cc(F)c(-c3ccncc3C(F)(F)F)cc21 [Compound 114, (S)—N-(2,2-difluoro-1-(5-fluoro-1-neopentyl-6-(3-(trifluoromethyl)pyridin-4-yl)-1H-indol-3-yl)ethyl)cyclopropanesulfonamide]
27 | 0.1 to 1 | COc1cccc(C#N)c1-c1ccc2c([C@H](NS(=O)(=O)C3CCC3)C(F)(F)F)cn(CC(C)(C)C)c2c1 [Compound 6, (S)—N-(1-(6-(2-cyano-6-methoxyphenyl)-1-neopentyl-1H-indol-3-yl)-2,2,2-trifluoroethyl)cyclobutanesulfonamide]
28 | 0.1 to 1 | CC(C)(C)Cn1cc([C@H](NS(=O)(=O)C2CC2)C(F)(F)F)c2cc(F)c(-c3cccnc3C(F)(F)F)cc21 [Compound 8, (S)—N-(2,2,2-trifluoro-1-(5-fluoro-1-neopentyl-6-(2-(trifluoromethyl)pyridin-3-yl)-1H-indol-3-yl)ethyl)cyclopropanesulfonamide]
29 | < 0.1 | CC(C)(C)Cn1cc([C@H](NS(=O)(=O)C2CC2)C(F)F)c2cc(F)c(-c3c(C(F)(F)F)ccnc3C#N)cc21 [Compound 99, N-((1S)-1-(6-(2-cyano-4-(trifluoromethyl)pyridin-3-yl)-5-fluoro-1-neopentyl-1H-indol-3-yl)-2,2-difluoroethyl)cyclopropanesulfonamide]
